Columns and labels:
[1] = Administration of 2 times 15 mg of efletirizine in solution with a 12-hour interval; format: in vivo, healthy volunteers; details: human, plasma, oral, 2 times 15 mg in solution; for Cmax / Tmax: 15 mg
Method: Two times 15 mg of efletirizine in solution were administered to 12 healthy volunteers, with a 12-hour interval.

[2] = Administration of 60 mg IR efletirizine gelatin capsule: influence of a meal; format: in vivo, patients; details: for AUC / Cmax / Tmax: human, in vivo, oral, 60 mg, 60 mg gelatin capsule
Method: A gelatin capsule containing 60 mg of efletirizine was administered to 20 fasting patients and to 22 patients who had eaten a standardized fatty meal beforehand.

histamine H1 receptor = histamine H1 receptor (Homo sapiens, UniProt P35367); details: background statement; cited from earlier work
[3] = Crossover trial: 10 mg IR solution plus 25 mg PR tablet J, fasting or after a meal, vs 15 mg IR solution twice; format: in vivo, human volunteers; details: human, plasma, oral, IR solution 15 mg × 2, 12-hour interval; for Cmax / Tmax: 15 mg
Method: In a crossover trial, 12 volunteers received 3 types of treatments: • 10 mg of IR efletirizine in the form of a solution and one PR tablet of 25 mg of efletirizine (J) while fasting; • 10 mg of IR efletirizine in the form of a solution and one PR tablet of 25 mg of efletirizine (J) after a standardized fatty meal; • 15 mg of IR efletirizine in the form of a solution, taken twice with a 12-hour interval
The first 3 components are granulated. The last 3 are then added and the mixture is compressed. The tablet J is a repeat of the composition of the tablet F, to which a granulating agent, Povidone K30™, has been added.

[4] = second dose, read-out: Cmax (2)
[5] = second dose, read-out: tmax (2)
[6] = 60 mg IR gelatin capsule, after a meal vs fasting
[7] = after a standardized fatty meal

Chain of histamine H1 receptor (P35367 whole entry, species assumed): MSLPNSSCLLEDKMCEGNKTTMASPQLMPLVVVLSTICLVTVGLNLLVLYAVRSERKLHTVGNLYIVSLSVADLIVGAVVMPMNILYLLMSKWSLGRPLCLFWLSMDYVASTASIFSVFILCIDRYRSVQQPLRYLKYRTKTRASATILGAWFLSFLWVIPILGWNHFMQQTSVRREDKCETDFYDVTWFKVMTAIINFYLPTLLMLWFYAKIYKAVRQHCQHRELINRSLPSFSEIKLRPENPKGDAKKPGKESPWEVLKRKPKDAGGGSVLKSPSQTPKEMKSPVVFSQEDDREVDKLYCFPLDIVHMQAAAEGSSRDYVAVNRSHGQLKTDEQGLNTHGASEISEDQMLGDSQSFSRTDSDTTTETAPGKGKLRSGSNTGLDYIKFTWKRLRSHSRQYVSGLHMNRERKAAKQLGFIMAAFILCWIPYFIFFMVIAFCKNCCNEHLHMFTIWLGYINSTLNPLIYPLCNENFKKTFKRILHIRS

Question: Which results are given for `O=C(O)COCCN1CCN(C(c2ccc(F)cc2)c2ccc(F)cc2)CC1` [efletirizine, 2-[2-[4-[Bis(4-fluorophenyl)methyl]-1-piperazinyl]-ethoxy]acetic acid]?
Answer: Cmax ([1]; first dose, read-out: Cmax(1)): 307 ng/mL; Tmax ([1]; first dose, read-out: tmax (1)): 0.6 h; Cmax [1, 4]: 305 ng/mL; Tmax [1, 5]: 12.6 h; AUC [1]: 2800 ng·h/mL; decrease of Cmax by having a meal [2, 6]: 42%; influence of a meal on bioavailability [2, 6]: decreased; AUC [2, 7]: 5780 ng·h/mL; Cmax [2, 7]: 855 ng/mL; Tmax [2, 7]: 3.03 h; AUC ([2]; fasting): 6350 ng·h/mL; Cmax ([2]; fasting): 1470 ng/mL; Tmax ([2]; fasting): 0.77 h; affinity in vitro for H1 receptors (histamine H1 receptor): great affinity; selectivity in vitro for H1 receptors (histamine H1 receptor): great selectivity; Cmax ([3]; first dose, read-out: Cmax (1)): 307 ng/mL; Tmax ([3]; first dose, read-out: tmax (1)): 0.6 h; Cmax [3, 4]: 305 ng/mL; Tmax [3, 5]: 12.6 h; AUC [3]: 2800 ng·h/mL

— patent publication US20050171119A1, “Pharmaceutical formulations with modified release” (UCB, S.A., priority 2002, published 2005)
